Measurements reported in patent US20230040415A1 (PureTech LYT 100, Inc., priority 2020, published 2023).
Like-named read-outs stand apart in the source and are kept apart here.

Assays:
[1] = tested on: Primary Mouse Lung Fibroblasts; assay: TGF-β-induced insoluble collagen synthesis, 96-well plate format (Sircol); assay type: cell-based; conditions: 500 μM, TGF-β 5 ng/ml, 72 hours, FIG. 4C; p=0.0003
Protocol: Approximately 5,000 primary mouse fibroblasts were plated in complete DMEM in 96 well plates and incubated for 3 days at which time the cultures achieved confluency. After cells reached confluency, the medium was removed and fresh DMEM supplemented with ascorbic acid (20 μg/ml) and prolin (10 μMol) was added. […] One hour later, TGF-β was added to the appropriate cultures at a final concentration of 5 ng/ml. After 72 hours, the media was replaced with a 0.5% glutaraldehyde solution. After 30 minutes, the adherent cells were washed and subsequently incubated with acetic acid at a final concentration of 0.5M. After a 30 min room temperature incubation, and subsequent washing steps, the wells were incubated with Sircol reagent. After 5 hours, the unbound dye was removed and the plates were washed and allowed to dry. To extract collagen-bound Sircol, 100 μL of alkaline solution (0.5M NaOH) was added and plates were shaken for 1 h on rotary shaker at room temperature. Absorbance at 600 nm was determined to detect bound collagen.

[2] = tested on: Primary Mouse Lung Fibroblasts; assay: TGF-β-induced soluble fibronectin ELISA; assay type: cell-based; conditions: Fibroblast
Protocol: (§1) Approximately 5,000 primary mouse lung fibroblasts were plated in complete DMEM in 96 well plates and incubated for 3 days at which time the cultures achieved confluency. After cells reached to confluency, medium was removed and fresh DMEM supplemented with ascorbic acid (20 μg/ml) and prolin (10 μM) was added. […] One hour later, TGF-β (5 ng/ml) was added to the appropriate cultures at a final concentration. After 72 hours, 200 μl samples of the supernatant were placed onto an ELISA plate and incubated overnight. After blocking with %1 BSA for 2 h, plates were incubated with either an anti-collagen type I antibody or an anti-fibronectin antibody.
(§2) The plates were washed after 1 hour and incubated with secondary horseradish peroxidase-conjugated antibodies (anti-goat for the collagen antibody, anti-rabbit for the fibronectin antibody). After a series of washing steps the color reagent TMB (3,3′,5,5′-Tetramethylbenzidine) was added and 15 minutes later the reactions were terminated with equal volumes of 2 N H2SO4. The levels of soluble collagen and fibronectin were determined by evaluating absorbance at 450 nm.

L929 cells [3] = assay: Survival of L929 cells (MTT); assay type: cell-based; conditions: 500 μM, 72 hrs
Protocol: Five thousand L929 cells were plated in completed DMEN and incubated until confluency for 3 days. Medium was removed and complete DMEM containing Prolin (20 μg/ml) and ascorbic acid (10 uM) was added. […], of medium was removed, […], MTT solution was added for 4 hrs, then 100 μl of DMSO was added, and absorbance of developed dark pink color was determined at […].

[4] = tested on: Primary Mouse Lung Fibroblasts; assay: TGF-β-induced insoluble collagen synthesis, 6-well plate format (Sircol); assay type: cell-based; conditions: Fibroblast, TGF-β 5 ng/ml, 72 hrs, p=0.026, read-out: inhibition of TGF-β-induced total collagen
Protocol: One hundred thousand Primary Mouse Lung Fibroblasts were plated in 6-well plates and incubated in complete DMEM until they reached confluency. The incubation medium was removed and complete DMEM containing Prolin (10 μM) and Ascorbic acid (20 μg/ml) was added.
Supernatant was removed, cells were washed with cold PBS, 1 ml Sircol reagent was added. The Sircol reagent contains the collagen binding dye Sirius red. The cells were scraped off with Sircol reagent and samples were shaken for 5 h at room temperature (RT), centrifuged at 10,000 rpm for 5 min, supernatant was removed, the pellet was washed in 0.5 M acetic acid to remove unbound dye, and recentrifuged at 10,000 rpm for 5 min, supernatant was removed and the final pellet was dissolved in 1 ml 0.5M NaOH and shaken at RT for 5 h. A sample of 100 μl of resultant solution was placed in 96-well. The color reaction was assessed by optical density at a wave length of 600 nm.

[5] = tested on: mouse tail model of lymphedema; assay: Mouse tail model of lymphedema; assay type: in vivo; conditions: once daily oral gavage, by 5 weeks; 7 animals per group
[6] = MAD study adverse event profile; assay type: in vivo
From the text: All subjects in Part 1 and Part 2 will be monitored for safety (including assessment of chemistry, haematology and urinalysis parameters, electrocardiograms [ECGs], vital signs and adverse events [AEs]) and samples will be collected for assessment of PK at predefined time points pre and post-dose as delineated in the Schedule of Events.

[7] = tested on: Primary Mouse Lung Fibroblasts; assay: TGF-β-induced soluble collagen ELISA; assay type: cell-based; conditions: Fibroblast
Protocol: as §1, §2

[8] = Food effect study Part 2, single 500 mg dose fed vs fasted; assay type: in vivo, human; conditions: human, plasma, oral, 500 mg, LYT-100 @500 mg single dose, analyte = label
Protocol: The comparison will be based on Day 1, Day 2 and Day 3 PK plasma samples after the first dose of study drug on Day 1 under fast and fed conditions of Part 2.
Subjects will be admitted to the CRU on Day −1 and will fast overnight for at least 10 h.

L929 cells [9] = assay: TGF-induced collagen synthesis in L929 cells, 6-wells (SIRCOL); assay type: cell-based; conditions: 500 μM
Protocol: 100,000 L929 cells were plated in complete DMEN and incubated until confluency for 3 days. Medium was removed and complete DMEM containing Prolin (20 μg/ml) and ascorbic acid (10 μM) was added. […] Cells were further incubated for 72 hrs. Supernatant was removed, cells were washed with cold PBS, 1 ml SIRCOL reagent was added onto the cells and cells were scraped off, samples were shaken for 5 h. at RT, centrifuged at 10.000 rpm for 5 min, supernatant was removed, pellet was dissolved in 0.5 M acetic acid to remove unbound dye, and re-centrifuged at 10.000 rpm for 5 min, supernatant was removed and final pelet was dissolved in 1 ml 0.5M NaOH, shaken at RT for 5 h, 100 μl of resulted solution was placed in 96-well and O.D was determined at 600.

NASH mice = assay: NASH mouse model (streptozotocin + high fat diet), liver histology; assay type: in vivo; conditions: n = 8
From the text: Non-alcoholic steatohepatitis (NASH) is characterized by lobular inflammation, hepatocyte ballooning and degeneration progressing to liver fibrosis. […] In addition, nine non-NASH mice were fed with a normal diet and monitored.

## [2H]C([2H])([2H])c1ccc(=O)n(-c2ccccc2)c1 [LYT-100, 5-(methyl-d3)-1-phenylpyridin-2-(1H)-one]
[1]
  diminution of TGF-β-stimulated insoluble collagen accumulation: 24%
[2]; TGF-β 5 ng/ml, 72 hours, p=0.0185, read-out: inhibition of TGF-β-dependent induction of soluble fibronectin
  inhibition at 500 µM: 11%
[2]; no TGF-β, p=0.03, read-out: inhibition of background level of soluble fibronectin
  inhibition at 500 µM: 10%
L929 cells [3]
  survival of L929 cells: does not affect survival
[4]
  inhibition at 500 µM: 15%
[5]
  tail swelling vs carboxymethylcellulose control: significantly reduced swelling
[6]; 750 mg BID
  tolerability of 750 mg dosing: surprisingly well tolerated
[6]; blinded MAD data
  most common adverse events: headache and mild abdominal discomfort
[6]; blinded MAD data, 100-1000 mg BID, 5 days
  severity of adverse events: mild and transient
[7]; TGF-β 5 ng/ml, 72 hours, p=0.0001, read-out: inhibition of TGF-β-dependent increase of soluble collagen
  inhibition at 500 µM: 36%
[7]; no TGF-β, p=0.0115, read-out: inhibition of background level of soluble collagen
  inhibition at 500 µM: 23%
[8]; read-out: AUC, Fasted
  AUC: 60900 ng·h/mL
[8]; read-out: AUC, Fed
  AUC: 49500 ng·h/mL
[8]; read-out: Cmax, Fasted
  Cmax: 10300 ng/mL
[8]; read-out: Cmax, Fed
  Cmax: 7900 ng/mL
L929 cells [9]
  collagen synthesis in the absence of added TGF-β: significantly inhibits
L929 cells [9]; TGF-β 5 ng/ml, 72 hrs
  TGF-induced collagen synthesis: inhibits
NASH mice; 30 mg/kg twice daily oral
  NAS (mean ± SD): 4.0 ± 1.1
NASH mice
  Hepatocyte ballooning score 2 (Many cells/prominent ballooning), number of animals: 8
  Lobular Inflammation score 1 (<2 foci/200x), number of animals: 5
  Lobular Inflammation score 2 (2-4 foci/200x), number of animals: 3
  Steatosis score 0 (<5%), number of animals: 4
  Steatosis score 1 (5-33%), number of animals: 3
  Steatosis score 2 (>33%-66%), number of animals: 1
